Legend:
Assay type in all cases: in vivo
Kunming mice [1] = assay: Detection of serum insulin level in high-fat diet / streptozotocin diabetic mice; settings: FIG. 15, last day after 28 days gavage, pea peptides 1,600 mg/kg BW, metformin 185 mg/kg BW, versus model group
Procedure: (§1) Hypoglycemic functions of the pea peptide samples were evaluated by using the following method.
(§2) 110 Kunming mice were weighed and randomly divided into 11 groups in total: a blank group, a model group, a positive group (metformin 185 mg/kg BW), Example 1-low dose (800 mg/kg BW), Example 1-medium dose (1600 mg/kg BW), Example 1-high dose (3,200 mg/kg BW), Example 2 (1,600 mg/kg BW), Example 3 (1,600 mg/kg BW), Comparative Example 1 (,1600 mg/kg BW), Comparative Example 2 (1,600 mg/kg BW), and Comparative Example 3 (1,600 mg/kg BW), with 10 mice for each group. No any treatment was performed on the blank group; the remaining 10 groups were fed with high-fat diet for 30 days, and then intraperitoneally injected with streptozotocin to induce diabetes, for modeling; except for the blank group and the model group, the positive group was gavaged with metformin, and the experimental group was gavaged with corresponding pea peptide, the gavage was successively performed for 28 days, and the following indicators were detected:
c. Detection of Insulin Level
On the last day of the experiment, all mice were killed, blood samples were collected and centrifuged to obtain serum, serum insulin concentrations (μg/L) were detected, and serum insulin concentration was calculated for each group based on the average value of 10 data.

Kunming mice [2] = assay: Detection of fasting blood glucose level in high-fat diet / streptozotocin diabetic mice; settings: FIG. 11; gavage 28 days; pea peptides 1,600 mg/kg BW, metformin 185 mg/kg BW; AUC of days 1, 7, 14, 21, 28; versus model group
Procedure: as §1, §2
a. Detection of Fasting Blood Glucose Level
After modeling, blood samples were collected from tail tips of 11 groups of mice on days 1, 7, 14, 21 and 28, respectively, to determine concentration of fasting blood glucose, and an area under curve, AUC, was calculated for each group based on the average value of 10 data.

Kunming mice [3] = assay: Detection of glucose tolerance level (oral glucose 2 g/kg) in high-fat diet / streptozotocin diabetic mice; settings: FIG. 13; last day, glucose 2 g/kg by gavage 60 min after treatment; AUC 0-120 min; pea peptides 1,600 mg/kg BW, metformin 185 mg/kg BW; versus model group
Procedure: as §1, §2
b. Detection of Glucose Tolerance Level […]

What does the source list for `CN(C)C(=N)N=C(N)N` [positive group, metformin]?
insulin concentration (Kunming mice [1]): significantly improve the insulin concentrations; fasting blood glucose level (Kunming mice [2]): significantly reduced fasting blood glucose level; blood glucose concentration (glucose tolerance capability) (Kunming mice [3]): significantly reduce the blood glucose concentration

From patent US12479894B2, “Pea peptide with auxiliary hypoglycemic function and preparation method thereof” (CHINA NATIONAL RESEARCH INSTITUTE OF FOOD & FERMENTATION …, priority 2019, dated 2025)
